From PubChem BioAssay (NCI)
Values joined by “and” are separate entries in the source; they are usually repeats but may differ in a detail not shown here. Equal entries are not always repeated.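 These data come from cells grown in 96-well plates and exposed to compound for 48 hours at five concentrations. GI50 marks 50% less growth. The concentration for full growth arrest is given as TGI.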

Experiments:
Experiment in all cases: NCI tumour cell line growth inhibition, 48 h
HT29 colon = tested on: HT29 colon
OVCAR-4 ovarian = tested on: OVCAR-4 ovarian
RXF 393 renal = tested on: RXF 393 renal
IGROV1 ovarian = tested on: IGROV1 ovarian
SK-MEL-28 melanoma = tested on: SK-MEL-28 melanoma
COLO 205 colon = tested on: COLO 205 colon
NCI-H23 lung = tested on: NCI-H23 lung
SNB-19 CNS = tested on: SNB-19 CNS
NCI-H226 lung = tested on: NCI-H226 lung
MALME-3M melanoma = tested on: MALME-3M melanoma

Structure (SMILES) | GI50 (HT29 colon) | TGI (HT29 colon) | GI50 (OVCAR-4 ovarian) | TGI (OVCAR-4 ovarian) | GI50 (RXF 393 renal) | TGI (RXF 393 renal) | GI50 (IGROV1 ovarian) | TGI (IGROV1 ovarian) | GI50 (SK-MEL-28 melanoma) | TGI (SK-MEL-28 melanoma) | GI50 (COLO 205 colon) | TGI (COLO 205 colon) | GI50 (NCI-H23 lung) | TGI (NCI-H23 lung) | GI50 (SNB-19 CNS) | TGI (SNB-19 CNS) | GI50 (NCI-H226 lung) | TGI (NCI-H226 lung) | GI50 (MALME-3M melanoma) | TGI (MALME-3M melanoma)
Cc1cc(/C=C2\SC(=Nc3ccccc3)N(C3CCCC3)C2=O)c(C)n1-c1ccc(Cl)cc1 | > 100 µM | > 100 µM | > 100 µM | > 100 µM | > 100 µM | > 100 µM | > 100 µM | > 100 µM | > 100 µM | > 100 µM | > 100 µM | > 100 µM | > 100 µM | > 100 µM | > 100 µM | > 100 µM | > 100 µM | > 100 µM | > 100 µM | > 100 µM
NC(N)=N/N=C(/c1nc2ccc([N+](=O)[O-])cc2[nH]c1=O)C(O)c1ccco1 (stereo not given) |  | > 100 µM |  | > 100 µM |  | > 100 µM |  | > 100 µM |  | > 100 µM |  | > 100 µM |  | > 100 µM |  | > 100 µM |  | > 100 µM |  | > 100 µM
Cc1cc(S(=O)(=O)Nc2nc(N)nc(N3N=CCC3C)n2)c(S)cc1Cl (stereo not given) |  | > 10 µM |  | > 10 µM |  | > 10 µM |  | > 10 µM |  | > 10 µM |  | > 10 µM |  | > 10 µM |  | > 10 µM |  | > 10 µM |  | > 10 µM
Nc1c(C(=O)c2ccccc2)sc2nc(-c3cccs3)ccc12 | 0.365 µM | 3.3 µM | 0.902 µM | 6.72 µM | 0.317 µM | 1.63 µM | 1.21 µM | 18.8 µM | 1.49 µM | > 100 µM | 0.426 µM | 4.65 µM | 0.331 µM | 10.1 µM | 0.432 µM | 10.3 µM | 2.11 µM | 12.5 µM | 1.19 µM | 12.6 µM
COc1cc(C2c3cc4c(cc3[C@@H](Nc3ccc(C(=O)O)cc3)C3COC(=O)[C@H]23)OCO4)cc(OC)c1O (stereo not given in full) |  | 64.8 µM and > 17.5 µM |  | > 100 µM |  | 37 µM and > 17.5 µM |  | 68.6 µM and > 17.5 µM |  | > 100 µM | 26.8 µM and 12.9 µM | > 100 µM |  | 31.1 µM and > 17.5 µM |  | > 100 µM |  | 15.8 µM and 13.9 µM |  | 47.9 µM and > 17.5 µM
COc1cc2c(cc1OCc1ccccc1)N=C[C@@H]1C/C(=C/C(=O)NCCCN3C(=O)c4cccc5cccc(c45)C3=O)CN1C2=O | 0.825 µM | > 100 µM | 2.63 µM | > 100 µM | 0.231 µM | 0.651 µM | 0.468 µM |  | 1.96 µM | 24.8 µM | 1.56 µM | 4.81 µM | 0.352 µM | 1.89 µM | 0.348 µM | > 56.7 µM | 2.82 µM | > 100 µM | 0.272 µM | 1.06 µM
COc1cc([C@H](C)c2ccc3ccccc3c2)cc(OC)c1OC | 0.294 µM | > 100 µM | 1.17 µM | > 100 µM | 0.22 µM | > 100 µM | 0.804 µM | > 100 µM | 5.25 µM | > 100 µM | 0.306 µM | 0.865 µM | 0.696 µM | > 100 µM | 0.601 µM | > 100 µM | 2.94 µM | > 100 µM | 1.36 µM | > 100 µM
CC1=CSC2=NC(c3ccc(Cl)c(Cl)c3)=CC(c3ccc(Cl)cc3)N12 (stereo not given) | > 100 µM | > 100 µM | > 100 µM | > 100 µM | > 100 µM | > 100 µM | > 100 µM | > 100 µM | > 100 µM | > 100 µM | > 100 µM | > 100 µM | > 100 µM | > 100 µM | > 100 µM | > 100 µM | > 100 µM | > 100 µM | > 100 µM | > 100 µM
COc1cc2c(cc1C)NC(=O)/C2=C\c1cc(OC)c(OC)c(OC)c1 | > 100 µM | > 100 µM | > 100 µM | > 100 µM | 14.2 µM | 36.1 µM | 72.1 µM | > 100 µM | > 100 µM | > 100 µM | > 100 µM | > 100 µM | 29.7 µM | > 100 µM | 91.9 µM | > 100 µM | > 100 µM | > 100 µM | 72.3 µM | > 100 µM
C=CCNC(=S)N1CC(C)C(=O)Nc2ccccc21 (stereo not given) |  | > 100 µM |  | > 100 µM |  | > 100 µM |  | > 100 µM |  | > 100 µM |  | > 100 µM |  | > 100 µM |  | > 100 µM |  | > 100 µM |  | > 100 µM
CN1CCN(CCSC2Cc3cc(Cl)ccc3Sc3ccccc32)CC1 (stereo not given) |  | 3.45 µM |  | 18.2 µM |  | 15.3 µM |  | 25.6 µM |  | 3.5 µM |  | 3.26 µM |  | 23.6 µM |  | 33.9 µM |  | 31.4 µM |  | 5.8 µM
c1ccc2c(c1)[I+]c1ccccc1-2 | 38.6 µM | > 50 µM | 21.6 µM | > 50 µM | > 50 µM | > 50 µM | > 50 µM | > 50 µM | > 50 µM | > 50 µM | > 50 µM | > 50 µM | 22.9 µM | > 50 µM | > 50 µM | > 50 µM | > 50 µM | > 50 µM | > 50 µM | > 50 µM
